# Measured values from US12569554B2, “Triterpene saponin analogues” (priority 2017, dated 2026).
# Where two headings read alike, the source gives them in different places.
# Legend:
# [1] = type: in vivo, mice; settings: for body weight loss: 50 mcg TiterQuil-1055, 20 mcg QS-21
# Description: (§1) Adacel doses containing 1, 0.3, and 0.1 mcg of pertussis toxin per mouse were administered subcutaneously (SC, with no immunological adjuvant), using 2 vaccinations 4 weeks apart, resulting in a mean of 1,618 mcg, 898 mcg, and 107 mcg respectively of anti-PT antibody per ml of serum drawn 2 weeks after the second vaccination. The 0.1 mcg dose was indistinguishable from unvaccinated controls (96 mcg/ml). A 0.5 mcg dose of Adacel was selected for a pharmacology/toxicology (pharm/tox) study. The serological results for this study are summarized in FIG. 3 of the present application.
# (§2) A pharm/tox study was conducted in 7 groups of 5 mice: 1) PBS alone, 2) 50 mcg TiterQuil-1055, 3) 20 mcg QS-21, 4) Adacel 2.5 mcg pertussis toxin (1/5 the human dose), 5) Adacel+QS-21 (20 mcg QS-21), 6) Adacel+TiterQuil-1055 (50 mcg), 7) Adacel+TiterQuil-1055 (50 mcg). Mice were vaccinated SC on days 1 and 15, weighed daily, and bled and sacrificed on day 22, except for group 7 which was sacrificed on day 29. […] Histopathology of 33 different tissues was performed on all mice. Detected abnormalities were restricted to the liver. […] This abnormality was short lived and was no detected in group 7, which was sacrificed one week after groups 1-6.
# [2] = Hemolytic assay; type: cell-based
# Description: (§3) Natural and synthetic QS-21 (SQS-21 or SAPONEX®) and a variety of analogs were tested for hemolytic activity.
# [3] = test system: mice; experiment: Pilot pharmacology/toxicology study: blood chemistry, hematology, histopathology; type: in vivo; settings: 50 mcg TiterQuil-1055, 20 mcg QS-21, Adacel 2.5 mcg pertussis toxin, alone or combined; for changes in blood chemistry or hematology results: SC days 1 and 15; for liver histopathology, hepatocellular cytoplasmic vacuolization: SC days 1 and 15, sacrificed day 22
# Description: as §2
# [4] = test system: mice; experiment: Adacel pharm/tox study, serology with TiterQuil-1055 or QS-21; type: in vivo; settings: for augmentation of antibody levels compared to immunization with Adacel alone: adjuvant given with Adacel
# Description: as §1, §2
# [5] = Companion toxicity study, body mass; type: in vivo, mice; settings: three days after immunization
# Description: as §3
# [6] = test system: humans; settings: cited from earlier work
# [7] = Stability at 37° C.; type: physicochemical; settings: for degraded: after two weeks at 37° C.
# Description: as §3
# [8] = test system: mice; experiment: Engerix-B immunogenicity, anti-HBsAg antibody; type: in vivo
# Description: Experiments were conducted with Engerix-B (HBV adult vaccine) in groups of 10 mice. Initially 3 mcg, 1 mcg, 0.3 mcg, 0.1 mcg, and 0.03 mcg Engerix-B doses per mouse were tested.
# [9] = Engerix-B study, body weight; type: in vivo, mice
# [10] = groups of 5 mice, 2 weeks after second SC immunization
compound,measurement,setting,value
QS-21 [reference compound],body weight loss,[1],8-9%
same,hemolytic activity,[2],highly hemolytically active
same,changes in blood chemistry or hematology results,[3],No changes
same,"liver histopathology, hepatocellular cytoplasmic vacuolization",[3],Mild vacuolar changes
same,augmentation of antibody levels compared to immunization with Adacel alone,[4]; [10],10 fold
same,body mass lost on average,[5]; 20 mcg QS-21,8-10%
same,tolerated dose in cancer patients,"[6]; cancer patients, above it local and systemic side effects",100 to 150 µg
same,maximum dose for healthy patients,[6]; healthy patients,~50 µg
same,highest practical tolerable dose,[6]; well (non-cancer) adult and child recipients,25 to 50 µg
same,degraded,[7],20%
CC1O[C@@H](OC2C(O)[C@@H](NC(=O)CCCCCCCCCCC(=O)O)C(CO)O[C@H]2OC(=O)[C@]23CCC(C)(C)CC2C2=CCC4C5(C)CC[C@H](O)C(C)(C=O)C5CCC4(C)C2(C)CC3O)C(O)C(O)[C@H]1O[C@@H]1OC[C@@H](O)C(O)C1O (stereo partly shown) [Compound I-4],weight loss,"[1]; 50 mcg TiterQuil-1055, 20 mcg QS-21, Adacel 2.5 mcg pertussis toxin, alone or combined, SC days 1 and 15, weighed daily",no other mice
same,body weight loss,[1],No weight loss
same,hemolytic activity,[2],much lower or undetectable hemolytic activity
same,changes in blood chemistry or hematology results,[3],No changes
same,"liver histopathology, hepatocellular cytoplasmic vacuolization",[3],No changes at all
same,antibody levels 2 weeks later,"[4]; Adacel with TiterQuil-1055, a further 2 weeks later",further increased
same,antibody levels,"[4]; groups of 5 mice, 2 weeks after second SC immunization, Adacel alone or Adacel with TiterQuil-1055","52,344"
same,augmentation of antibody levels compared to immunization with Adacel alone,[4]; [10],70 fold
same,serologic effect,[8]; 10 mcg TiterQuil-1055 mixed with 0.3 mcg Engerix-B,no serologic effect
same,increase in antibody levels compared to Engerix-B alone,[8]; 30 mcg TiterQuil-1055 mixed with 0.3 mcg Engerix-B,> 6 fold
same,increase in antibody levels compared to Engerix-B alone,[8]; 100 mcg TiterQuil-1055 mixed with 0.3 mcg Engerix-B,5 fold
same,antibody response at higher adjuvant doses,[8]; TiterQuil-1055 doses above 50 mcg per mouse,Lack of antibody increase or decreasing responses
same,body mass gained on average,[5],5%
same,weight loss,[9]; 30 mcg TiterQuil-1055 dose,No weight loss
same,weight loss,[9]; 100 mcg TiterQuil-1055 dose,4%
same,weight loss,[9]; 300 mcg TiterQuil-1055 dose,5%
same,degraded,[7],without detectable degradation
same,stability,[7]; compared with QS-21,increased stability
